Where a name gives a salt, the structure may show the parent alone.
Assays:
TNBS colitis = TNBS colitis in mice; assay type: in vivo; details: i.c. administration, 50 mg/kg daily for 5 days, day 4, vs vehicle-treated mice
Description: Male C57BL/6J mice 8-10 weeks old were purchased from The Jackson Laboratory (Sacramento, CA, USA). Mice were housed 4 per cage, maintained on a 12:12 hour light-dark cycle and given access to food and water ad libitum. Following an acclimatization period of 3 to 5 days, trinitrobenzene sulfonic acid (TNBS, Millipore Sigma, St. Louis, MO, USA) colitis was induced by intracolonic (i.c.) injection of 0.05 ml TNBS solution (5 mg in 40% ethanol) via a polyethylene cannula (BD Intramedic PE-20 tubing, Thermo Fisher Scientific, Santa Clara, CA, USA) inserted 3.5 cm from the anal verge under isoflurane anesthesia (4% in O2 induction, 2.5-3% maintenance). Control mice received an injection of 40% ethanol (0.05 ml, i.c.). To test the effectiveness of the HDAC analogs, mice received a daily injection (0.1 ml, i.c.) of a selective HDAC class II inhibitor analog (50 mg/kg MJK001-013) or vehicle (5% dimethyl sulfoxide, Millipore Sigma) beginning one day prior to TNBS colitis induction (day −1) for a period of 5 days. Separate groups of mice received HDAC inhibitors or vehicle administered by daily oral gavage (50 mg/kg, 0.25 ml, p.o.). All analogs tested were first dissolved in dimethyl sulfoxide (DMSO) with rapid vortexing and subsequent dilution to 5% in sterile phosphate buffered saline (PBS; Gibco, Thermo Fisher Scientific). Vehicle contained 5% DMSO in sterile PBS. Prior to use, all solids were stored in amber (light-blocking) storage vials at 4° C. On the first day of administration, stock solutions were prepared, aliquoted and stored at −20° C. for daily use. Upon thawing, each aliquot was vortexed prior to intracolonic injection (via a polyethylene cannula) or oral gavage (20 ga×38 mm, Instech, Thermo Fisher Scientific). Following all in vivo experiments, animals were euthanized on day 4 by CO2 inhalation and cervical dislocation and the distal colons removed for further study.
Disease severity was assessed by weight loss and measurement of colon length and determination of clinical and histological damage scores on day 4 of the protocol. Briefly, clinical scores were calculated on a scale of 0-3 for degree of weight loss, bleeding, stool consistency and presence of rectal prolapse. Sections of colon (5 μm) fixed in 10% formalin, paraffin-embedded and stained with hematoxylin and eosin (H&E) were used for histological scoring using an AxioImager. Z1 microscope equipped with AxioVision software version 4.6 (Zeiss, Jena, Germany). Scoring was performed by two independent investigators blinded to the treatment conditions and resulting scores averaged. Scores were assigned based on the degree of crypt damage (0-4), polymorphonuclear neutrophil (PMN) infiltrate (0-3), erosion (0-3), and edema (0-3).
Statistical analyses were performed using GraphPad Prism (Version 5.0a; GraphPad Software, La Jolla, CA, USA). Differences were determined by unpaired t-test, 1-way analysis of variance, or a 2-way analysis of variance with Tukey's post-test. A p value <0.05 was considered to be statistically significant. Data presented are means±SEM for n animals.
Novel chemical HDAC inhibitors were developed aiming to target specific isoforms of the HDAC Class IIA members. Overall, as shown above, compounds have been synthesized, named MJK-001, -002, -003, -004, -005, -006, -007, -008, -009, -010, -011, -012 & -013. The effect of selective HDAC class IIA isoform inhibition during development of colitis in mice in vivo during TNBS administration was assessed. This mouse model is known to recapitulate many features of human Crohn's Disease. Mice received either an intracolonic (i.c.) injection or oral delivery (p.o.) of the MJK compounds once daily for a period of 5 days and health status, weight loss, and disease activity were monitored. Mice (male C57BL/6J, 8-10 wks old) are weighed and monitored daily. On the final day, blood, feces, and colonic samples for RNA, protein and histology are collected for downstream analysis. […]

[1] = Water solubility of MJK compounds; assay type: physicochemical
From the text: Solubility of MJK compounds: The development of an oral formulation for patients with auto-immune diseases, including Crohn's Disease, is preferential and less expensive, avoiding the need of hospitalization in comparison to the intracolonic (enema) administration. Thus, the water solubility and physical properties of the MJK compounds were examined. […] MJK-008 is the highest soluble MJK compound.

[2] = listed as MJK-005, hydrochloride, 50 mg/kg
[3] = listed as MJK-013, hydrochloride, 50 mg/kg

Q: For `COc1cccc(C(=O)/C=C/c2ccc(/C=C/C(=O)NO)n2C)c1` [MJK002, (E)-N-hydroxy-3-(5-((E)-3-(3-methoxyphenyl)-3-oxoprop-1-en-1-yl)-1-methyl-1H-pyrrol-2-yl)acrylamide], which clinical score (TNBS colitis; 50 mg/kg) is on record?
A: Its clinical score is “♦♦♦”.

Q: And the colon length (TNBS colitis; 50 mg/kg)?
A: Its colon length is “♦”.

Q: What about the histological score (TNBS colitis; 50 mg/kg) of the same molecule?
A: Its histological score is “did not yield significant differences and ns”.

Q: What about the clinical score (TNBS colitis; listed as MJK-002, 50 mg/kg) of the same molecule?
A: Its clinical score is “statistical significance in the reduction of the clinical score”.

Q: And the colon length (TNBS colitis; listed as MJK-002, 50 mg/kg)?
A: Its colon length is “increase of colon length”.

Q: What about the Solubility score [1] of the same molecule?
A: The Solubility score was “more soluble than MJK-001 and MJK-003”.

Q: Which results are given for `Cn1c(/C=C/C(=O)NO)ccc1/C=C/C(=O)c1cccc(Cl)c1` [MJK003, (E)-3-(5-((E)-3-(3-chlorophenyl)-3-oxoprop-1-en-1-yl)-1-methyl-1H-pyrrol-2-yl)-N-hydrox-yacrylamide]?
A: clinical score (TNBS colitis; 50 mg/kg): ♦♦; colon length (TNBS colitis; 50 mg/kg): ♦; histological score (TNBS colitis; 50 mg/kg): did not yield significant differences and ns; clinical score (TNBS colitis; listed as MJK-003, 50 mg/kg): statistical significance in the reduction of the clinical score; colon length (TNBS colitis; listed as MJK-003, 50 mg/kg): increase of colon length

Q: With `Cl.Cn1c(/C=C/C(=O)NO)ccc1/C=C/C(=O)c1ccsc1` [MJK005, (E)-N-hydroxy-3-(1-methyl-5-((E)-3-oxo-3-(thiophen-3-yl)prop-1-en-1-yl)-1H-pyrrol-2-yl)acrylamide hydrochloride] as the molecule, how does the clinical score (TNBS colitis; hydrochloride, 50 mg/kg) read?
A: Its clinical score is “♦♦♦”.

Q: What about the colon length (TNBS colitis; hydrochloride, 50 mg/kg) of the same molecule?
A: Its colon length is “ns”.

Q: And the clinical score (TNBS colitis; [2])?
A: Its clinical score is “reduction in clinical scoring”.

Q: What about the colon length (TNBS colitis; [2]) of the same molecule?
A: The colon length was “did not alter colon length”.

Q: For `Cn1cccc1C(=O)/C=C/c1ccc(/C=C/C(=O)NO)n1C` [MJK007, (E)-N-Hydroxy-3-(1-methyl-5-((E)-3-(1-methyl-1H-pyrrol-2-yl)-3-oxoprop-1-en-1-yl)-1H-pyrrol-2-yl)acrylamide], which clinical score (TNBS colitis; 50 mg/kg) is on record?
A: Its clinical score is “ns”.

Q: What about the colon length (TNBS colitis; 50 mg/kg) of the same molecule?
A: The colon length was “ns”.

Q: What about the clinical score (TNBS colitis; listed as MJK-007, 50 mg/kg) of the same molecule?
A: Its clinical score is “no significant differences”.

Q: And the colon length (TNBS colitis; listed as MJK-007, 50 mg/kg)?
A: The colon length was “no significant differences”.

Q: Which results are given for `Cn1c(/C=C/C(=O)NO)ccc1/C=C/C(=O)c1cccnc1` [MJK009, (E)-N-Hydroxy-3-(1-methyl-5-((E)-3-oxo-3-(pyridin-3-yl)prop-1-en-1-yl)-1H-pyrrol-2-yl)ac-rylamid p-toluenesulfonic acid salt]?
A: clinical score (TNBS colitis; 50 mg/kg): ♦; colon length (TNBS colitis; 50 mg/kg): ns; clinical score (TNBS colitis; listed as MJK-009, 50 mg/kg): reduction in clinical scoring; colon length (TNBS colitis; listed as MJK-009, 50 mg/kg): did not alter colon length; Solubility score [1]: highest solubility

Q: What does the source list for `Cn1c(/C=C/C(=O)NO)ccc1/C=C/C(=O)c1ccccn1` [MJK010, (E)-N-Hydroxy-3-(1-methyl-5-((E)-3-oxo-3-(pyridin-2-yl)prop-1-en-1-yl)-1H-pyrrol-2-yl)acrylamide]?
A: clinical score (TNBS colitis; 50 mg/kg): ns; colon length (TNBS colitis; 50 mg/kg): ns; clinical score (TNBS colitis; listed as MJK-010, 50 mg/kg): no significant differences; colon length (TNBS colitis; listed as MJK-010, 50 mg/kg): no significant differences

Q: Which clinical score (TNBS colitis; 50 mg/kg) does the source give for `Cn1c(/C=C/C(=O)NO)ccc1/C=C/C(=O)c1ccncc1` [MJK011, (E)-N-hydroxy-3-(1-methyl-5-((E)-3-oxo-3-(pyridin-4-yl)prop-1-en-1-yl)-1H-pyrrol-2-yl)ac-rylamide] here?
A: Its clinical score is “♦♦♦”.

Q: And the colon length (TNBS colitis; 50 mg/kg)?
A: The colon length was “ns”.

Q: What about the clinical score (TNBS colitis; listed as MJK-011, 50 mg/kg) of the same molecule?
A: Its clinical score is “reduction in clinical scoring”.

Q: What about the colon length (TNBS colitis; listed as MJK-011, 50 mg/kg) of the same molecule?
A: Its colon length is “did not alter colon length”.

Q: What about the Solubility score [1] of the same molecule?
A: The Solubility score was “worst solubility”.

Q: With `Cn1c(/C=C/C(=O)NO)ccc1/C=C/C(=O)c1ccco1` [MJK012, (E)-3-(5-((E)-3-(Furan-2-yl)-3-oxoprop-1-en-1-yl)-1-methyl-1H-pyrrol-2-yl)-N-hydroxyacrylamide] as the molecule, how does the clinical score (TNBS colitis; 50 mg/kg) read?
A: The clinical score was “ns”.

Q: What about the colon length (TNBS colitis; 50 mg/kg) of the same molecule?
A: The colon length was “ns”.

Q: And the clinical score (TNBS colitis; listed as MJK-012, 50 mg/kg)?
A: Its clinical score is “no significant differences”.

Q: And the colon length (TNBS colitis; listed as MJK-012, 50 mg/kg)?
A: Its colon length is “no significant differences”.

Q: With `Cl.Cn1c(/C=C/C(=O)NO)ccc1/C=C/C(=O)c1cnccn1` [MJK013, (E)-N-Hydroxy-3-(1-methyl-5-((E)-3-oxo-3-(pyrazin-2-yl)prop-1-en-1-yl)-1H-pyrrol-2-yl)acrylamide hydrochloride] as the molecule, how does the clinical score (TNBS colitis; hydrochloride, 50 mg/kg) read?
A: The clinical score was “ns”.

Q: And the colon length (TNBS colitis; hydrochloride, 50 mg/kg)?
A: The colon length was “ns”.

Q: What about the clinical score (TNBS colitis; [3]) of the same molecule?
A: Its clinical score is “no significant differences”.

Q: What about the colon length (TNBS colitis; [3]) of the same molecule?
A: The colon length was “no significant differences”.

Reference: US11952362B2, “Compositions and methods for treating epigenetic disease” (The Regents of the University of California, priority 2018, dated 2024)
